# Results from patent US6358885B1, “Substituted phenylheterocyclic herbicides” (Mississippi State University, priority 1992, dated 2002).
# Assays:
# [1] = test system: morningglory; assay: Test B preemergence/postemergence greenhouse plant response rating 0 to 10; format: in vivo, Ipomoea hederacea; conditions: 0 to 10 scale
# Procedure, shortened: (§1)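 Test chemicals, dissolved in a non-phytotoxic solvent, were applied to soil at planting and, at the same time, over foliage of seedlings at the one to four leaf stage.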
# [2] = test system: blackgrass; assay: Test C preemergence/postemergence greenhouse plant response rating 0 to 100; format: in vivo, Alopecurus myosuroides; conditions: POSTEMERGENCE; for Plant response rating, Blackgrass: 0 to 100 scale
# Procedure, shortened: (§2)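 Compounds in non-phytotoxic solvent applied preemergence to sandy loam one day after planting, postemergence at the 1–4 leaf stage, or to ~2.5 cm floodwater over silt loam.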
# [3] = test system: rice; assay: Test B preemergence/postemergence greenhouse plant response rating 0 to 10; format: in vivo, Oryza sativa; conditions: 0 to 10 scale
# Procedure, shortened: as §1
# [4] = test system: umbrella sedge; assay: Test C flood test plant response rating 0 to 100; format: in vivo, Cyperus difformis; conditions: for Plant response rating Umbrella sedge: flood test species listed under POSTEMERGENCE, 0 to 100 scale
# Text: (§3) The compounds evaluated in this test were formulated in a non-phytoxic solvent and applied to the soil surface before plant seedlings emerged (preemergence application), to water that covered the soil surface (flood application), and to plants that were in the one-to-four leaf stage (postemergence application). A sandy loam soil was used for the preemergence and postemergence tests, while a silt loam soil was used in the flood test. Water depth was approximately 2.5 cm for the flood test and was maintained at this level for the duration of the test. Plant species in the preemergence and postemergence tests consisted of barley (Hordeum vulgare), bedstraw (Galium aparine), blackgrass (Alopecurus myosuroides), chickweed (Stellaria media), corn (Zea mays), cotton (Gossypium hirsutum), crabgrass (Digitaria sanguinalis), downy brome (Bromus tectorum), giant foxtail (Setaria faberii), lambsquarters (Chenopodium album), morningglory (Ipomoea hederacea), pigweed ([…]), rape (Brassica napus), ryegrass (Lolium multiflorum), sorghum (Sorghum bicolor), soybean (Glycine max), speedwell (Veronica persica), sugar beet (Beta vulgaris), velvetleaf (Abutilon theophrasti), wheat (Triticum aestivum), wild buckwheat (Polygonum convolvulus), and wild oat (Avena fatua). All plant species were planted one day before application of the compound for the preemergence portion-of this test. Plantings of these species were adjusted to produce plants of appropriate size for the post-emergence portion of the test. […] All plant species were grown using normal greenhouse practices. Visual evaluations of injury expressed on treated plants, when compared to untreated controls, were recorded approximately fourteen to twenty one days after application of the test compound. […] A dash (-) response means no test result.
# [5] = test system: rape; assay: Test C preemergence/postemergence greenhouse plant response rating 0 to 100; format: in vivo, Brassica napus; conditions: POSTEMERGENCE; for Plant response rating, Rape: 0 to 100 scale
# Procedure, shortened: as §2
# [6] = test system: wild oat; assay: Test B preemergence/postemergence greenhouse plant response rating 0 to 10; format: in vivo, Avena fatua; conditions: 0 to 10 scale
# Procedure, shortened: as §1
# [7] = test system: sorghum; assay: as above; format: in vivo, Sorghum bicolor; conditions: 0 to 10 scale
# Procedure, shortened: as §1
# [8] = test system: barnyardgrass; assay: as above; format: in vivo, Echinochloa crus-galli; conditions: 0 to 10 scale
# Procedure, shortened: as §1
# [9] = test system: wheat; assay: as above; format: in vivo, Triticum aestivum; conditions: 0 to 10 scale
# Procedure, shortened: as §1
# [10] = test system: rice; assay: Test C flood test plant response rating 0 to 100; format: in vivo, Oryza sativa; conditions: for Plant response rating Rice Japonica: flood test species listed under POSTEMERGENCE, 0 to 100 scale
# Text: as §3
# [11] = test system: cotton; assay: Test B preemergence/postemergence greenhouse plant response rating 0 to 10; format: in vivo, Gossypium hirsutum; conditions: 0 to 10 scale
# Procedure, shortened: as §1
# [12] = test system: cocklebur; assay: as above; format: in vivo, Xanthium pensylvanicum; conditions: 0 to 10 scale
# Procedure, shortened: as §1
# [13] = test system: crabgrass; assay: Test C preemergence/postemergence greenhouse plant response rating 0 to 100; format: in vivo, Digitaria sanguinalis; conditions: POSTEMERGENCE; for Plant response rating, Crabgrass: 0 to 100 scale
# Procedure, shortened: as §2
# [14] = POSTEMERGENCE section, flood test, Rate 4 g/ha
# [15] = Rate 16 g/ha, under POSTEMERGENCE head (flood test species)
structure (smiles),measurement,setting,value
COC(=O)c1cc(-c2nn3c(c2Cl)CCCC3)c(F)cc1Cl [Compound 43],"Plant response rating, Morningglory","[1]; POSTEMERGENCE, Rate 50 g/ha",10
same,"Plant response rating, Morningglory","[1]; PREEMERGENCE, Rate 50 g/ha",0
same,"Plant response rating, Morningglory","[1]; Rate 200 g/ha, POSTEMERGENCE",10
same,"Plant response rating, Morningglory","[1]; Rate 200 g/ha, PREEMERGENCE",0
same,"Plant response rating, Blackgrass",[2]; 62 g/ha,60
same,"Plant response rating, Blackgrass",[2]; 250 g/ha,90
same,"Plant response rating (0 to 100), Blackgrass",[2]; Rate 4 g/ha,20
same,"Plant response rating (0 to 100), Blackgrass",[2]; Rate 16 g/ha,30
same,"Plant response rating, Rice","[3]; POSTEMERGENCE, Rate 50 g/ha",7
same,"Plant response rating, Rice","[3]; PREEMERGENCE, Rate 50 g/ha",1
same,"Plant response rating, Rice","[3]; Rate 200 g/ha, POSTEMERGENCE",9
same,"Plant response rating, Rice","[3]; Rate 200 g/ha, PREEMERGENCE",2
same,"Plant response rating (0 to 100), Umbrella sedge",[4]; [14],0
same,"Plant response rating (0 to 100), Umbrella sedge",[4]; [15],0
same,Plant response rating Umbrella sedge,[4]; 62 g/ha,60
same,Plant response rating Umbrella sedge,[4]; 250 g/ha,70
same,"Plant response rating, Rape",[5]; 62 g/ha,100
same,"Plant response rating, Rape",[5]; 250 g/ha,100
same,"Plant response rating (0 to 100), Rape",[5]; Rate 4 g/ha,80
same,"Plant response rating (0 to 100), Rape",[5]; Rate 16 g/ha,100
same,"Plant response rating, Wild oat","[6]; POSTEMERGENCE, Rate 50 g/ha",5
same,"Plant response rating, Wild oat","[6]; PREEMERGENCE, Rate 50 g/ha",2
same,"Plant response rating, Wild oat","[6]; Rate 200 g/ha, POSTEMERGENCE",7
same,"Plant response rating, Sorghum","[7]; POSTEMERGENCE, Rate 50 g/ha",5
same,"Plant response rating, Sorghum","[7]; PREEMERGENCE, Rate 50 g/ha",0
same,"Plant response rating, Sorghum","[7]; Rate 200 g/ha, POSTEMERGENCE",8
same,"Plant response rating, Sorghum","[7]; Rate 200 g/ha, PREEMERGENCE",2
same,"Plant response rating, Barnyardgrass","[8]; POSTEMERGENCE, Rate 50 g/ha",7
same,"Plant response rating, Barnyardgrass","[8]; POSTEMERGENCE, Rate 200 g/ha",9
same,"Plant response rating, Barnyardgrass","[8]; PREEMERGENCE, Rate 50 g/ha",0
same,"Plant response rating, Barnyardgrass","[8]; Rate 200 g/ha, PREEMERGENCE",2
same,"Plant response rating, Wheat","[9]; POSTEMERGENCE, Rate 50 g/ha",3
same,"Plant response rating, Wheat","[9]; PREEMERGENCE, Rate 50 g/ha",0
same,"Plant response rating, Wheat","[9]; Rate 200 g/ha, POSTEMERGENCE",8
same,"Plant response rating, Wheat","[9]; Rate 200 g/ha, PREEMERGENCE",2
same,"Plant response rating (0 to 100), Rice Japonica",[10]; [14],35
same,"Plant response rating (0 to 100), Rice Japonica",[10]; [15],60
same,Plant response rating Rice Japonica,[10]; 62 g/ha,70
same,Plant response rating Rice Japonica,[10]; 250 g/ha,75
same,"Plant response rating, Cotton","[11]; POSTEMERGENCE, Rate 50 g/ha",10
same,"Plant response rating, Cotton","[11]; POSTEMERGENCE, Rate 200 g/ha",10
same,"Plant response rating, Cotton","[11]; PREEMERGENCE, Rate 50 g/ha",0
same,"Plant response rating, Cotton","[11]; Rate 200 g/ha, PREEMERGENCE",1
same,"Plant response rating, Cocklebur","[12]; POSTEMERGENCE, Rate 50 g/ha",8
same,"Plant response rating, Cocklebur","[12]; POSTEMERGENCE, Rate 200 g/ha",10
same,"Plant response rating, Cocklebur","[12]; PREEMERGENCE, Rate 50 g/ha",0
same,"Plant response rating, Cocklebur","[12]; Rate 200 g/ha, PREEMERGENCE",0
same,"Plant response rating, Crabgrass",[13]; 62 g/ha,20
same,"Plant response rating, Crabgrass",[13]; 250 g/ha,60
same,"Plant response rating (0 to 100), Crabgrass",[13]; Rate 4 g/ha,10
same,"Plant response rating (0 to 100), Crabgrass",[13]; Rate 16 g/ha,20
